System: cyclosporine A-induced nephrotoxicity
Assay: cyclosporine A-induced nephrotoxicity (rise in serum BUN) in SHR rats dosed for 14 days
Type: in vivo, female spontaneously hypertensive (SHR) rats
Details: for Serum BUN ± S.E.M.: 14 days; for inhibition of the increase in serum BUN: 3 mg/kg/day in saline
Procedure: All experiments were carried out using female spontaneously hypertensive (SHR) rats, weight range 160-200 gm, obtained from Taconic Farms. […] Four thromboxane antagonists have been studied so far. […] Thromboxane antagonists have been administered as the sodium salt dissolved in saline, the sodium salt dissolved in 0.1% NaHCO₃ or the free acid suspended in 1% Methocel.

[1] = 3 mg/kg/day in saline with cyclosporine A 25 mg/kg/day, Combined experiments
[2] = 3 mg/kg/day in saline with cyclosporine A 25 mg/kg/day, Experiment 1
[3] = second experiment combined together

Q: How did the “Serum BUN ± S.E.M.” value [1] turn out when `O=C(O)CC1CCCc2c1n(Cc1ccc(Cl)cc1)c1ccc(F)cc21` (racemic) [Compound 2, 9-(p-Chlorobenzyl)-6-fluoro-1,2,3,4-tetrahydrocarbazol-1-yl acetic acid] was run?
A: 30.3 ± 2.0 mg/100 ml

Q: What about the “Serum BUN ± S.E.M.” value [2] of the same compound?
A: 24.6 ± 1.7 mg/100 ml

Q: And the “inhibition of the increase in serum BUN” value (one experiment (Table 2))?
A: significant inhibition

Q: And the “inhibition of the increase in serum BUN” value [3]?
A: no significant inhibition

Q: `O=C(O)CC1CCCc2c1n(Cc1ccc(Cl)cc1)c1c(F)cc(F)cc21` (single isomer, unassigned; (-)) [Compound 3, (-)-9-(p-Chlorobenzyl)-6,8-difluoro-1,2,3,4-tetrahydrocarbazol-1-yl acetic acid] was tested. Which “Serum BUN ± S.E.M.” value (3 mg/kg/day, suspension of free acid in 1% Methocel, with cyclosporine A 25 mg/kg/day, Table 4 (two separate experiments)) did it give?
A: 23.2 ± 0.9 mg/100 ml

Q: What about the “Serum BUN ± S.E.M.” value (10 mg/kg/day, suspension of free acid in 1% Methocel, with cyclosporine A 25 mg/kg/day, Table 4 (two separate experiments)) of the same compound?
A: 24.0 ± 1.1 mg/100 ml

Q: What about the “inhibition of the rise in serum BUN” value (both doses (3 and 10 mg/kg/day), suspension of the free acid, two separate experiments) of the same compound?
A: significant inhibition

Q: Which results are given for `CS(=O)(=O)c1ccc(Cn2c3c(c4cc(F)cc(F)c42)CCCC3CC(=O)O)cc1` (single isomer, unassigned; (-)) [Compound 4, (-)-9-(p-Methylsulfonylbenzyl)-6,8-difluoro-1,2,3,4-tetrahydrocarbazol-1-yl acetic acid]?
A: Serum BUN ± S.E.M. (3 mg/kg/day, suspension of free acid in 1% Methocel, with cyclosporine A 25 mg/kg/day, Table 5): 23.5 ± 1.0 mg/100 ml; Serum BUN ± S.E.M. (10 mg/kg/day, suspension of free acid in 1% Methocel, with cyclosporine A 25 mg/kg/day, Table 5): 21.9 ± 0.8 mg/100 ml; effect on cyclosporine A-induced rises in serum BUN (both 3 and 10 mg/kg/day, suspension of the free acid): effective

Q: What does the source list for `Cc1c(CC(C)(C)C(=O)O)n(Cc2ccc(Cl)cc2)c2ccc(F)cc12` [Compound 1, 3-(1-(4-Chlorobenzyl)-3-methyl-5-fluoroindol-2 yl)-2,2-dimethyl propanoic acid]?
A: inhibition of the increase in serum BUN induced by cyclosporine A (3 mg/kg/day in 0.1% NaHCO₃): No significant inhibition; Serum BUN ± S.E.M. (3 mg/kg/day in 0.1% NaHCO₃ with cyclosporine A 25 mg/kg/day): 28.3 ± 2.2 mg/100ml; Serum BUN ± S.E.M. [1]: 28.0 ± 1.6 mg/100 ml; Serum BUN ± S.E.M. [2]: 24.5 ± 1.1 mg/100 ml; inhibition of the increase in serum BUN (one experiment (Table 2)): significant inhibition; inhibition of the increase in serum BUN [3]: no significant inhibition; Serum BUN ± S.E.M. (10 mg/kg/day in 0.1% NaHCO₃ with cyclosporine A 25 mg/kg/day, 2 separate experiments): 23.4 ± 0.9 mg/100ml; inhibition of the increase in serum BUN induced by cyclosporine A (10 mg/kg/day in 0.1% NaHCO₃, mean of two separate experiments, p < 0.05): significant inhibition
